Literature values as cited in patent publication US20170119738A1, “PHARMACEUTICAL COMPOSITIONS FOR RIZATRIPTAN” (Dr. Reddy's Laboratories, Ltd., priority 2015, published 2017).

Tests used:
[1] = test system: migraine headache
[2] = test system: human cloned 5-HT1B/1D receptors

SMILES: CN(C)CCc1c[nH]c2ccc(Cn3cncn3)cc12 [Rizatriptan, N,N-dimethyl-2-[5-(1H-1,2,4-triazol-1-ylmethyl)-1H-indol-3-yl]ethanamine]
- pain-free response at 2 hours, symptom-free response at 2 hours, 24 hour sustained pain-free response ([1]; oral 10 mg vs oral sumatriptan, naratriptan, zolmitriptan (Adelman et al. 2001)): more effective
- effectiveness for pain relief (PR) and pain freedom (PF) ([1]; oral 10 mg vs other oral triptans (Ng-Mak et al. 2007)): significantly more effective than other oral triptans
- binding affinity [2]: high affinity
